One assay addresses JAK1 (Homo sapiens (Human), UniProt P23458). The assay can be described thus: Jak Biochemical HTRF Assay, JAK1. Particulars: HTRF biochemical assay, GST-tagged catalytic domain; top concentration tested […]; read-out: JAK1 IC50. An excerpt:
(§1) Jak Biochemical HTRF Assay Protocol
(§2) Subsequent reagent additions employed an Agilent Bravo.

The target of another assay is JAK2 (Homo sapiens (Human), UniProt O60674). Briefly: Jak Biochemical HTRF Assay, JAK2. Particulars: HTRF biochemical assay, GST-tagged catalytic domain; top concentration tested […].
Description: as §1, §2
Background: In TR-FRET formats the signal depends on donor and acceptor labels being close together.

JAK1, sequence (P23458 875-1153): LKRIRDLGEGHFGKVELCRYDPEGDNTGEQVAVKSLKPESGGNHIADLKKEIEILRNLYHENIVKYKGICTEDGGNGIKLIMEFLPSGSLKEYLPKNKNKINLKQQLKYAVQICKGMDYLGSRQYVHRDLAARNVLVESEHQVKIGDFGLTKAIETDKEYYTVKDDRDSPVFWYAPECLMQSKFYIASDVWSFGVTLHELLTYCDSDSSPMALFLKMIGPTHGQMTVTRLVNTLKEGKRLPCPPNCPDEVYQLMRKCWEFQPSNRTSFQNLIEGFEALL
JAK2, sequence (O60674 849-1124): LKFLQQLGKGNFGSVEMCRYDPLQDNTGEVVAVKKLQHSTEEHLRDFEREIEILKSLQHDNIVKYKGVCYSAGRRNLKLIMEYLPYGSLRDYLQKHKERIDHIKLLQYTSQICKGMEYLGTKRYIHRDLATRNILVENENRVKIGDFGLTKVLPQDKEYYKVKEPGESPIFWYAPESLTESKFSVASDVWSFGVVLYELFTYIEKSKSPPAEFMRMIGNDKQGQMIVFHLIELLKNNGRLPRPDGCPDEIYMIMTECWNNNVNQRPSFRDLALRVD

For the molecule `CC(C)(C)OC(=O)N1CCC(CC#N)(n2cc(C(N)=O)c(Nc3cc(F)ccn3)n2)CC1` [Example 13-5, tert-butyl 4-(4-carbamoyl-3-(4-fluoropyridin-2-ylamino)-1H-pyrazol-1-yl)-4-(cyanomethyl)piperidine-1-carboxylate], the IC50 on JAK1 came to 15 nM; on JAK2, 903 nM.
The like results for `N#CCC1(n2cc(C(N)=O)c(Nc3ccccc3)n2)CCN(Cc2cccc(F)c2)CC1` [Example 21-18, 1-[4-(cyanomethyl)-1-(3-fluorobenzyl)piperidin-4-yl]-3-(phenylamino)-1H-pyrazole-4-carboxamide] were, in that order, 2 nM and 73 nM.
The like results for `CC(C)(C)OC(=O)N1CCC(CC#N)(n2cc(C(N)=O)c(Nc3cncc(Cl)c3)n2)CC1` [Example 9-36, tert-butyl 4-{4-carbamoyl-3-[(5-chloropyridin-3-yl)amino]-1H-pyrazol-1-yl}-4-(cyanomethyl)piperidine-1-carboxylate] were, in that order, 0.9 nM and 21 nM.
Consider `COCCOC(=O)N1CCC(CC#N)(n2cc(C(N)=O)c(Nc3ccc(F)cc3)n2)CC1` [Example 30-48, 2-methoxyethyl 4-{4-carbamoyl-3-[(4-fluorophenyl)amino]-1H-pyrazol-1-yl}-4-(cyanomethyl)piperidine-1-carboxylate], for which the IC50 on JAK1 was determined as 4 nM; against JAK2 it was 71 nM.
Turning to `N#CCC1(n2cc(C(N)=O)c(Nc3ccc(F)cc3)n2)CCN(Cc2cccc3[nH]ccc23)CC1` [Example 22-57, 1-[4-(cyanomethyl)-1-(1H-indol-4-ylmethyl)piperidin-4-yl]-3-[(4-fluorophenyl)amino]-1H-pyrazole-4-carboxamide], the figures for the IC50 on JAK1 and against JAK2 were 14 nM and 280 nM, respectively.
For `N#CCC1(n2cc(C(N)=O)c(Nc3ccc(F)cc3)n2)CCN(CCF)CC1` [Example 24-1, 1-(4-(Cyanomethyl)-1-(2-fluoroethyl)piperidin-4-yl)-3-((4-fluorophenyl)amino)-1H-pyrazole-4-carboxamide], in that order: 10 nM and 59 nM.
For `N#CCC1(n2cc(C(N)=O)c(Nc3ccnc(F)c3)n2)CCC(N2CC(F)C2)CC1` (stereo not drawn) [Example 40-104, Cis or trans 1-[1-(cyanomethyl)-4-(3-fluoroazetidin-1-yl)cyclohexyl]-3-[(2-fluoropyridin-4-yl)amino]-1H-pyrazole-4-carboxamide], in that order: 0.2 nM and 11 nM.
For `N#CCC1(n2cc(C(N)=O)c(Nc3ccnc(F)c3)n2)CCN(Cc2cnccn2)CC1` [Example 22-14, 1-[4-(cyanomethyl)-1-(pyrazin-2-ylmethyl)piperidin-4-yl]-3-[(2-fluoropyridin-4-yl)amino]-1H-pyrazole-4-carboxamide], in that order: 0.6 nM and 28 nM.
Consider `CC(CF)(CF)C(=O)N1CCC(CC#N)(n2cc(C(N)=O)c(Nc3ccnc(F)c3)n2)CC1` [Example 34-41, 1-{4-(cyanomethyl)-1-[3-fluoro-2-(fluoromethyl)-2-methylpropanoyl]piperidin-4-yl}-3-[(2-fluoropyridin-4-yl)amino]-1H-pyrazole-4-carboxamide], for which the results for the IC50 at JAK1 and against JAK2 were 3 nM and 48 nM, respectively.
For `Cc1cnc(F)c(CN2CCC(CC#N)(n3cc(C(N)=O)c(Nc4ccnc(F)c4)n3)CC2)c1` [Example 22-22, 1-{4-(cyanomethyl)-1-[(2-fluoro-5-methylpyridin-3-yl)methyl]piperidin-4-yl}-3-[(2-fluoropyridin-4-yl)amino]-1H-pyrazole-4-carboxamide], in that order: 0.4 nM and 13 nM.
For `CC(C)[C@@H](O)C(=O)N1CCC(CC#N)(n2cc(C(N)=O)c(Nc3ccnc(F)c3)n2)CC1` [Example 34-46, 1-{4-(cyanomethyl)-1-[(2R)-2-hydroxy-3-methylbutanoyl]piperidin-4-yl}-3-[(2-fluoropyridin-4-yl)amino]-1H-pyrazole-4-carboxamide], in that order: 2 nM and 139 nM.
For `CC(C)(C)OC(=O)N1CCC(CC#N)(n2cc(C(N)=O)c(Nc3ccnc(N)c3)n2)CC1` [Example 9-14, tert-butyl 4-{3-[(2-aminopyridin-4-yl)amino]-4-carbamoyl-1H-pyrazol-1-yl}-4-(cyanomethyl)piperidine-1-carboxylate], in that order: 0.2 nM and 3 nM.
Take `N#CCC1(n2cc(C(N)=O)c(Nc3ccc(F)cc3)n2)CCN(c2ccc(F)c(F)c2)CC1` [Example 3-45, 1-[4-(cyanomethyl)-1-(3,4-difluorophenyl)piperidin-4-yl]-3-[(4-fluorophenyl)amino]-1H-pyrazole-4-carboxamide]: the IC50 at JAK1 stood at 2 nM; at JAK2, 70 nM.
For `CN(c1ccccc1)C1CCC(CC#N)(n2cc(C(N)=O)c(Nc3ccnc(F)c3)n2)CC1` (stereo not drawn) [Example 40-34, Cis or trans 1-{1-(cyanomethyl)-4-[methyl(phenyl)amino]cyclohexyl}-3-[(2-fluoropyridin-4-yl)amino]-1H-pyrazole-4-carboxamide], in that order: 4 nM and 105 nM.
The like results for `N#CCC1(n2cc(C(N)=O)c(Nc3ccnc(F)c3)n2)CCN(C(=O)C2(C(F)(F)F)CCC2)CC1` [Example 34-51, 1-[4-(cyanomethyl)-1-{[1-(trifluoromethyl)cyclobutyl]carbonyl}piperidin-4-yl]-3-[(2-fluoropyridin-4-yl)amino]-1H-pyrazole-4-carboxamide] were, in that order, 4 nM and 37 nM.
For `N#CCC1(n2cc(C(N)=O)c(Nc3ccc(S(=O)(=O)C(F)F)cc3)n2)CCC(N2CCC(F)(F)CC2)CC1` (stereo not drawn) [Example 40-42, Cis or trans 1-[1-(cyanomethyl)-4-(4,4-difluoropiperidin-1-yl)cyclohexyl]-3-({4-[(difluoromethyl)sulfonyl]phenyl}amino)-1H-pyrazole-4-carboxamide], in that order: 64 nM and 775 nM.
Turning to `N#CCC1(n2cc(C(N)=O)c(Nc3ccnc(F)c3)n2)CCC(NCc2ccccc2C#N)CC1` (stereo not drawn) [Example 41-27, Cis or trans 1-{4-[(2-cyanobenzyl)amino]-1-(cyanomethyl)cyclohexyl}-3-[(2-fluoropyridin-4-yl)amino]-1H-pyrazole-4-carboxamide], the IC50 is 307 nM on JAK1 and above 1500 nM against JAK2.
For `N#CCC1(n2cc(C(N)=O)c(Nc3ccnc(F)c3)n2)CCC(N2CCc3ccccc32)CC1` (stereo not drawn) [Example 40-30, Cis or trans 1-[1-(cyanomethyl)-4-(2,3-dihydro-1H-indol-1-yl)cyclohexyl]-3-[(2-fluoropyridin-4-yl)amino]-1H-pyrazole-4-carboxamide], the IC50 was 326 nM on JAK1 and above 1500 nM on JAK2.
For `N#CCC1(n2cc(C(N)=O)c(Nc3ccccc3)n2)CN(S(=O)(=O)c2ccccc2)C1` [Example 37-19, 1-[3-(cyanomethyl)-1-(phenylsulfonyl)azetidin-3-yl]-3-(phenylamino)-1H-pyrazole-4-carboxamide], in that order: 138 nM and 463 nM.
Turning to `C[C@@H](OC(=O)N1CCC(CC#N)(n2cc(C(N)=O)c(Nc3ccc(F)cc3)n2)CC1)C(F)(F)F` [Example 30-14, (R)-1,1,1-trifluoropropan-2-yl 4-(4-carbamoyl-3-(4-fluorophenylamino)-1H-pyrazol-1-yl)-4-(cyanomethyl)piperidine-1-carboxylate], the values for the IC50 at JAK1 and against JAK2 were 2 nM and 30 nM, respectively.
The like results for `N#CCC1(n2cc(C(N)=O)c(Nc3ccnc(F)c3)n2)CCC(NCc2ccc(Cl)cc2)CC1` (stereo not drawn) [Example 41-15, Cis or trans 1-{4-[(4-chlorobenzyl)amino]-1-(cyanomethyl)cyclohexyl}-3-[(2-fluoropyridin-4-yl)amino]-1H-pyrazole-4-carboxamide] were, in that order, 0.1 nM and 2 nM.
For `N#CC[C@]1(n2cc(C(N)=O)c(Nc3ccccc3)n2)C[C@@H](C#N)C1` [Example 2-21, 1-((1s,3s)-3-cyano-1-(cyanomethyl)cyclobutyl)-3-(phenylamino)-1H-pyrazole-4-carboxamide], in that order: 31 nM and 405 nM.
For `CC(C)(C)OC(=O)N1CCC(CC#N)(n2cc(C(N)=O)c(Nc3ccnc(Cl)c3)n2)CC1` [Example 9-29, tert-butyl 4-{4-carbamoyl-3-[(2-chloropyridin-4-yl)amino]-1H-pyrazol-1-yl}-4-(cyanomethyl)piperidine-1-carboxylate], in that order: 0.1 nM and 3 nM.
Take `COCCNC1CCC(CC#N)(n2cc(C(N)=O)c(Nc3ccc(F)cc3)n2)CC1` (stereo not drawn) [Example 40-71, Cis or trans 1-{1-(cyanomethyl)-4-[(2-methoxyethyl)amino]cyclohexyl}-3-[(4-fluorophenyl)amino]-1H-pyrazole-4-carboxamide]: the values for the IC50 on JAK1 and against JAK2 were 24 nM and 814 nM, respectively.
For `N#CCC1(n2cc(C(N)=O)c(Nc3ccc(F)cc3)n2)CCC(Nc2ccc(Cl)cc2)CC1` (stereo not drawn) [Example 40-52, Cis or trans 1-{4-[(4-chlorophenyl)amino]-1-(cyanomethyl)cyclohexyl}-3-[(4-fluorophenyl)amino]-1H-pyrazole-4-carboxamide], in that order: 0.6 nM and 20 nM.
For `CC(C)(C)OC(=O)N1CCC(CC#N)(n2cc(C(N)=O)c(Nc3cccc(-c4ccccc4)c3)n2)CC1` [Example 15-3, tert-butyl 4-[3-(biphenyl-3-ylamino)-4-carbamoyl-1H-pyrazol-1-yl]-4-(cyanomethyl)piperidine-1-carboxylate], in that order: 341 nM and 1050 nM.
As for `N#CCC1(n2cc(C(N)=O)c(Nc3ccccc3)n2)CCN(Cc2ccccc2Cl)CC1` [Example 21-6, 1-[1-(2-chlorobenzyl)-4-(cyanomethyl)piperidin-4-yl]-3-(phenylamino)-1H-pyrazole-4-carboxamide], the IC50 on JAK1 came out at 3 nM; on JAK2, 55 nM.

By IC50 is commonly meant the concentration that gives 50% inhibition.

(Values after patent US9328099B2, “Cyanomethylpyrazole carboxamides as janus kinase inhibitors” (Merck Sharp & Dohme Corp., priority 2011, dated 2016).)
